Measured values published in ChEMBL document CHEMBL6114980, “Single or double lipid-modified ultra-short antimicrobial peptides for treating infections caused by resistant bacteria” (Eur J Med Chem, 2025).
In brackets after ≈: the same amount, converted by molar mass. Activity calls are given as the source filed them. No cut-off for these calls is given here. Peptide text beside a SMILES is read from it. * marks the point of attachment. Lauroyl = CCCCCCCCCCCC(=O)*; Octanoyl = CCCCCCCC(=O)*

What was measured:
Staphylococcus aureus [1] = test: Synergistic antibacterial activity against Staphylococcus aureus 25923 measured after 18 hrs in presence of polymyxin B by absorbance based analysis; format: functional, organism-based
Staphylococcus aureus [2] = test: Antibacterial activity against methicillin resistant Staphylococcus aureus infected in male BALB/c mouse model of skin wound infection assessed as healthy development of sebaceous glands at 2 mg/kg, ip measured after 10 days post infection; format: functional, organism-based; details: time 10.0 day
Escherichia coli [3] = test: Antibacterial activity against Escherichia coli ATCC 25922 assessed as reduction in bacterial growth incubated for 18 to 24 hrs by broth microdilution method; format: functional; details: time 18-24 hrs
Staphylococcus aureus [4] = test: Antibacterial activity against Staphylococcus aureus 125 assessed as reduction in bacterial growth incubated for 18 to 24 hrs by broth microdilution method; format: functional; details: time 18-24 hrs
Staphylococcus aureus [5] = test: Antibacterial activity against methicillin resistant Staphylococcus aureus infected in male BALB/c mouse model of skin wound infection assessed as reduction in wound area at 2 mg/kg, ip measured after 10 days post infection relative to control; format: functional; design: scale not given: the % may be the effect or the level left; details: time 10 day
Staphylococcus aureus [6] = test: Synergistic antibacterial activity against Staphylococcus aureus 25923 assessed as fractional inhibitory in presence of streptomycin by checker board assay; format: functional
Staphylococcus aureus [7] = test: Synergistic antibacterial activity against methicillin-resistant Staphylococcus aureus measured after 18 hrs in presence of streptomycin by absorbance based analysis; format: functional, organism-based
Staphylococcus aureus [8] = test: Synergistic antibacterial activity against Staphylococcus aureus 113 measured after 18 hrs in presence of cephalothin by absorbance based analysis; format: functional, organism-based
Staphylococcus aureus [9] = test: Synergistic antibacterial activity against methicillin-resistant Staphylococcus aureus measured after 18 hrs in presence of cephalothin by absorbance based analysis; format: functional, organism-based
Klebsiella pneumoniae [10] = test: Induction of morphological changes in Klebsiella pneumoniae assessed as cell adhesion at 2 times MIC measured after 30 mins by SEM analysis; format: functional, organism-based
Escherichia coli [11] = test: Induction of cell membrane disruption in Escherichia coli assessed as PI uptake at 4 times MIC measured after 120 mins by PI staining based flow cytometry analysis (Rvb =<10 %); format: functional; details: 2 h
Staphylococcus aureus [12] = test: Antibacterial activity against Staphylococcus aureus 794 assessed as reduction in bacterial growth incubated for 18 to 24 hrs by broth microdilution method; format: functional; details: time 18-24 hrs
Klebsiella pneumoniae [13] = test: Induction of morphological changes in Klebsiella pneumoniae assessed as cell aggregation at 2 times MIC measured after 120 mins by SEM analysis; format: functional, organism-based
Staphylococcus aureus [14] = test: Antibacterial activity against Staphylococcus aureus assessed as reduction in survival bacterial growth in presence of <=2 ug/ml chymotrypsin measured after1 hr by absorbance based analysis; format: functional, organism-based; details: time 1.0 hrs
Cell membrane [15] = test: Induction of inner membrane permeabilization in Escherichia coli at 4 times MIC measured for 135 mins by absorbance based analysis
Klebsiella pneumoniae [16] = test: Induction of morphological changes in Klebsiella pneumoniae assessed as cell contraction at 2 times MIC measured after 30 mins by SEM analysis; format: functional, organism-based
Staphylococcus aureus [17] = test: Additive antibacterial activity against Staphylococcus aureus 113 assessed as fractional inhibitory in presence of cephalothin by checker board assay; format: functional
Cell membrane [18] = test: Induction of cytoplasmic membrane depolarization in Escherichia coli assessed as increase in fluorescence intensity at 4 times MIC measured for 10 mins by DiSC3-5 dye based fluorescence assay
Acinetobacter baumannii [19] = test: Antibacterial activity against Acinetobacter baumannii 92359 assessed as reduction in bacterial growth incubated for 18 to 24 hrs by broth microdilution method; format: functional; details: time 18-24 hrs
Acinetobacter baumannii [20] = test: Antibacterial activity against Acinetobacter baumannii 5444 assessed as reduction in bacterial growth incubated for 18 to 24 hrs by broth microdilution method; format: functional; details: time 18-24 hrs
Staphylococcus aureus [21] = test: Induction of cell membrane disruption in Staphylococcus aureus assessed as PI uptake at 2 to 4 times MIC measured after 120 mins by PI staining based flow cytometry analysis (Rvb =<10 %); format: functional; details: 2 h
Klebsiella pneumoniae [22] = test: Induction of morphological changes in Klebsiella pneumoniae assessed as cell adhesion at 2 times MIC measured after 120 mins by SEM analysis; format: functional, organism-based
Escherichia coli [23] = test: Antibacterial activity against Escherichia coli assessed as reduction in survival bacterial growth by measuring fold change in presence of ZnCl2 measured after 18 to 24 hrs; format: functional; details: time 18-24 hrs
Bacillus subtilis = test: Antibacterial activity against Bacillus subtilis ATCC 23857 assessed as reduction in bacterial growth incubated for 18 to 24 hrs by broth microdilution method; format: functional; details: time 18-24 hrs
Cell membrane [24] = test: Induction of outer membrane permeabilization in Escherichia coli assessed as increase in fluorescence intensity at 2 to 4 times MIC measured for 10 mins by fluorescence based NPN uptake assay
Staphylococcus aureus [25] = test: Additive antibacterial activity against methicillin-resistant Staphylococcus aureus assessed as fractional inhibitory in presence of cephalothin by checker board assay; format: functional
Staphylococcus aureus [26] = test: Bactericidal activity against Staphylococcus aureus 25923 assessed as eradication of bacteria at 2 times MIC measured within 1 hr by time-kill assay; format: functional, organism-based
Staphylococcus aureus [27] = test: Antibacterial activity against Staphylococcus aureus assessed as reduction in survival bacterial growth by measuring fold change in presence of FeCl3 measured after 18 to 24 hrs; format: functional; details: time 18-24 hrs
Staphylococcus aureus [28] = test: Synergistic antibacterial activity against Staphylococcus aureus 25923 measured after 18 hrs in presence of streptomycin by absorbance based analysis; format: functional, organism-based
Escherichia coli [29] = test: Induction of cell membrane disruption in Escherichia coli assessed as PI uptake at 2 times MIC measured after 120 mins by PI staining based flow cytometry analysis (Rvb =<10 %); format: functional; details: 2 h
Staphylococcus aureus [30] = test: Antibacterial activity against Staphylococcus aureus 113 assessed as reduction in bacterial growth incubated for 18 to 24 hrs by broth microdilution method; format: functional; details: time 18-24 hrs
Staphylococcus aureus [31] = test: Induction of morphological changes in Staphylococcus aureus assessed as cell foaming at 2 times MIC measured after 30 mins by SEM analysis; format: functional, organism-based
[32] = Acute toxicity in male BALB/c mouse assessed lethal dose administered as ip dose measured for 7 days; format: organism-based; details: in vivo, time 7 day
Staphylococcus aureus [33] = test: Synergistic antibacterial activity against Staphylococcus aureus 113 measured after 18 hrs in presence of polymyxin B by absorbance based analysis; format: functional, organism-based
Pseudomonas aeruginosa = test: Antibacterial activity against Pseudomonas aeruginosa 6434N assessed as reduction in bacterial growth incubated for 18 to 24 hrs by broth microdilution method; format: functional; details: time 18-24 hrs
Staphylococcus aureus [34] = test: Synergistic antibacterial activity against Staphylococcus aureus 113 measured after 18 hrs in presence of streptomycin by absorbance based analysis; format: functional, organism-based
[35] = system: Staphylococcus epidermidis; test: Antibacterial activity against Staphylococcus epidermidis ATCC 12228 assessed as reduction in bacterial growth incubated for 18 to 24 hrs by broth microdilution method; format: functional; details: time 18-24 hrs
Escherichia coli [36] = test: Bactericidal activity against Escherichia coli 25922 assessed as eradication of bacteria at 2 times MIC measured within 1 hr by time-kill assay; format: functional, organism-based
Klebsiella pneumoniae [37] = test: Antibacterial activity against Klebsiella pneumoniae ATCC 700603 infected in male BALB/c mouse lung infection model assessed as expansion of lung alveoli at 5 mg/kg, ip measured after 6 to 36 hrs; format: functional, organism-based; details: time 6-36 hrs
Klebsiella pneumoniae [38] = test: Antibacterial activity against Klebsiella pneumoniae ATCC 700603 assessed as reduction in bacterial growth incubated for 18 to 24 hrs by broth microdilution method; format: functional; details: time 18-24 hrs
Staphylococcus aureus [39] = test: Synergistic antibacterial activity against methicillin-resistant Staphylococcus aureus assessed as fractional inhibitory in presence of polymyxin B by checker board assay; format: functional
Staphylococcus aureus [40] = test: Antibacterial activity against Staphylococcus aureus 25923 at sub-MIC concentration measured after 15 passages; format: functional, organism-based

Compound: CCCCCCCCCCCC(=O)N[C@@H](CCCCN)C(=O)N[C@@H](CCCCN)C(=O)N[C@@H](Cc1c[nH]c2ccccc12)C(=O)N[C@@H](Cc1c[nH]c2ccccc12)C(N)=O (Lauroyl-KKWW-NH2)
- Activity (Staphylococcus aureus [1]): Active
- Activity (Staphylococcus aureus [2]): Active
- MIC (Escherichia coli [3]): 8 µM (≈ 6.62 µg/mL)
- MIC (Staphylococcus aureus [4]): 4 µM (≈ 3.31 µg/mL)
- Activity (Staphylococcus aureus [5]): <20%
- fractional inhibitory concentration index (FICI) (Staphylococcus aureus [6]): 0.187
- Activity (Staphylococcus aureus [7]): Active
- Activity (Staphylococcus aureus [8]): Active
- Activity (Staphylococcus aureus [9]): Active
- Activity (Klebsiella pneumoniae [10]): Active
- Activity (Escherichia coli [11]): 100%
- MIC (Staphylococcus aureus [12]): 4 µM (≈ 3.31 µg/mL)
- Activity (Klebsiella pneumoniae [13]): Active; Compound Showed More Pronounced Effect Compared To 30 Mins Incubation Time
- Activity (Staphylococcus aureus [14]): Active
- Activity (Cell membrane [15]): Active; Compound Showed Stronger Effect Than Positive Control 0.1% Tritonx-100
- Activity (Klebsiella pneumoniae [16]): Active
- fractional inhibitory concentration index (FICI) (Staphylococcus aureus [17]): 0.562
- Activity (Cell membrane [18]): Active; Compound Showed Pronounced Effect Than Quality Control Polymyxin B
- MIC (Acinetobacter baumannii [19]): 16 µM (≈ 13.2 µg/mL)
- MIC (Acinetobacter baumannii [20]): 16 µM (≈ 13.2 µg/mL)
- Activity (Staphylococcus aureus [21]): 100%
- Activity (Klebsiella pneumoniae [22]): Active; Compound Showed More Pronounced Effect Compared To 30 Mins Incubation Time
- fold change (FC) (Escherichia coli [23]): 2
- MIC (Bacillus subtilis): 2 µM (≈ 1.66 µg/mL)
- Activity (Cell membrane [24]): Active
- fractional inhibitory concentration index (FICI) (Staphylococcus aureus [25]): 0.75
- Activity (Staphylococcus aureus [26]): Active
- fold change (FC) (Staphylococcus aureus [27]): 2
- Activity (Staphylococcus aureus [28]): Active
- Activity (Escherichia coli [29]): >50%
- MIC (Staphylococcus aureus [30]): 4 µM (≈ 3.31 µg/mL)
- Activity (Staphylococcus aureus [31]): Active
- LD50 at 168 h [32]: 114 mg/kg
- Activity (Staphylococcus aureus [33]): Active
- MIC (Pseudomonas aeruginosa): 8 µM (≈ 6.62 µg/mL)
- Activity (Staphylococcus aureus [34]): Active
- MIC [35]: 4 µM (≈ 3.31 µg/mL)
- Activity (Escherichia coli [36]): Active
- Activity (Klebsiella pneumoniae [37]): Active
- MIC (Klebsiella pneumoniae [38]): 16 µM (≈ 13.2 µg/mL)
- fractional inhibitory concentration index (FICI) (Staphylococcus aureus [39]): 0.375
- Activity (Staphylococcus aureus [40]): inactive

Compound: CCCCCCCC(=O)NCCCC[C@H](NC(=O)CCCCCCC)C(=O)N[C@@H](CCCCN)C(=O)N[C@@H](CCCCN)C(=O)N[C@@H](Cc1c[nH]c2ccccc12)C(=O)N[C@@H](Cc1c[nH]c2ccccc12)C(N)=O (Octanoyl-K(Octanoyl)KKWW-NH2)
- Activity (Staphylococcus aureus [1]): Active
- Activity (Staphylococcus aureus [2]): Active
- MIC (Escherichia coli [3]): 8 µM (≈ 8.21 µg/mL)
- MIC (Staphylococcus aureus [4]): 8 µM (≈ 8.21 µg/mL)
- Activity (Staphylococcus aureus [5]): <20%
- fractional inhibitory concentration index (FICI) (Staphylococcus aureus [6]): 0.312
- Activity (Staphylococcus aureus [7]): Active
- Activity (Staphylococcus aureus [8]): Active
- Activity (Staphylococcus aureus [9]): Active
- Activity (Klebsiella pneumoniae [10]): Active
- Activity (Escherichia coli [11]): 100%
- MIC (Staphylococcus aureus [12]): 16 µM (≈ 16.4 µg/mL)
- Activity (Klebsiella pneumoniae [13]): Active; Compound Showed More Pronounced Effect Compared To 30 Mins Incubation Time
- Activity (Staphylococcus aureus [14]): Active
- Activity (Cell membrane [15]): Active; Compound Showed Stronger Effect Than Positive Control 0.1% Tritonx-100
- Activity (Klebsiella pneumoniae [16]): Active
- fractional inhibitory concentration index (FICI) (Staphylococcus aureus [17]): 0.562
- Activity (Cell membrane [18]): Active; Compound Showed Pronounced Effect Than Quality Control Polymyxin B
- MIC (Acinetobacter baumannii [19]): 8 µM (≈ 8.21 µg/mL)
- MIC (Acinetobacter baumannii [20]): 16 µM (≈ 16.4 µg/mL)
- Activity (Staphylococcus aureus [21]): 100%
- Activity (Klebsiella pneumoniae [22]): Active; Compound Showed More Pronounced Effect Compared To 30 Mins Incubation Time
- fold change (FC) (Escherichia coli [23]): 2
- MIC (Bacillus subtilis): 8 µM (≈ 8.21 µg/mL)
- Activity (Cell membrane [24]): Active
- fractional inhibitory concentration index (FICI) (Staphylococcus aureus [25]): 0.562
- Activity (Staphylococcus aureus [26]): Active
- fold change (FC) (Staphylococcus aureus [27]): 2
- Activity (Staphylococcus aureus [28]): Active
- Activity (Escherichia coli [29]): >50%
- MIC (Staphylococcus aureus [30]): 8 µM (≈ 8.21 µg/mL)
- Activity (Staphylococcus aureus [31]): Active
- LD50 at 168 h [32]: 113 mg/kg
- Activity (Staphylococcus aureus [33]): Active
- MIC (Pseudomonas aeruginosa): 16 µM (≈ 16.4 µg/mL)
- Activity (Staphylococcus aureus [34]): Active
- MIC [35]: 8 µM (≈ 8.21 µg/mL)
- Activity (Escherichia coli [36]): Active
- Activity (Klebsiella pneumoniae [37]): Active
- MIC (Klebsiella pneumoniae [38]): 16 µM (≈ 16.4 µg/mL)
- fractional inhibitory concentration index (FICI) (Staphylococcus aureus [39]): 0.375
- Activity (Staphylococcus aureus [40]): inactive
